Numbered stars: 1 amine (or outer) side, 2 acyl side, 3 side chain; on linkers, the order of the positions; unused ones are H or OH. Square brackets hold non-standard residues; d marks the D form. Side chains are listed from the residue outwards. Peptide text beside a SMILES is read from it. * marks the point of attachment. X4 = N#Cc1cccc(C[C@@H]2C[C@@H](C(=O)[*:2])N([*:1])C2)c1; Pro(trans-4-cHex) = O=C(O)[C@@H]1C[C@@H](C2CCCCC2)CN1; X1 = O=C([C@@H]1C[C@@H](Cc2ccc(Br)cc2)CN1[*:1])[*:2]; Trp(6-Cl) = N[C@@H](Cc1c[nH]c2cc(Cl)ccc12)C(=O)O; Phe(4-CF3) = N[C@@H](Cc1ccc(C(F)(F)F)cc1)C(=O)O; X7 = O=C([C@H](CCNCc1c[nH]cn1)N[*:1])[*:2]; Oic = O=C(O)[C@@H]1C[C@@H]2CCCC[C@@H]2N1; Phe(4-CN) = N#Cc1ccc(C[C@H](N)C(=O)O)cc1; X13 = CC1(C)CC[C@@H](C(=O)[*:2])N1[*:1]; Phe(4-F) = N[C@@H](Cc1ccc(F)cc1)C(=O)O; Hyp = O=C(O)[C@@H]1C[C@@H](O)CN1; MeOCH2CH2OCH2CO = COCCOCC(=O)*; N(Me)CH2CH2OMe = COCCN(C)*; dPip = O=C(O)[C@H]1CCCCN1; Thz = O=C(O)[C@@H]1CSCN1; Ac5c = NC1(C(=O)O)CCCC1; Dab = NCC[C@H](N)C(=O)O; X8 = Cn1cncc1CCC(=O)*; CO = O=C([*:1])[*:2]; NHCH2CH2OMe = COCCN*; Bn = c1ccc(C*)cc1; Ms = CS(=O)(=O)*
Key:
[1] = target: T1, human CCR10 (Homo sapiens, UniProt P46092); assay: Calcium flux assay (CCR10 antagonism, CCL27 as agonist); assay type: cell-based; conditions: CCR10 transfected 300-19 murine pre-B cells; CCL27 30 nM
T1 construct: expressed in transfected cells
T1 sequence (P46092 1-362): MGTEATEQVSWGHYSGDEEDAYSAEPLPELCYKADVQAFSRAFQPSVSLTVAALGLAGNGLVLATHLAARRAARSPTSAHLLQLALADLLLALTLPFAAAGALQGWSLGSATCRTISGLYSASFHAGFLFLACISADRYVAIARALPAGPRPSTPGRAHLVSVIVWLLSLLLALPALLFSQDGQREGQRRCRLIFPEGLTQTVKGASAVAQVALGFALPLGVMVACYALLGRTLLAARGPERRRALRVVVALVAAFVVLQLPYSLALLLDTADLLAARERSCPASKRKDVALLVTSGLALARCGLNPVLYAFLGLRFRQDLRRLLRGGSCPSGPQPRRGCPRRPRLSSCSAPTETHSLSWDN
Procedure: (§1) Lyophilized peptides were weighed on a Microbalance (Mettler MX5) and dissolved in aqueous 90% DMSO to a final concentration of 10 mM unless otherwise stated. Stock solutions were kept at +4° C., and protected from light.
(§2) Peptides were assayed for CCR10 antagonism in a calcium flux assay and in a chemotaxis assay using a mouse pre-B cell line 300-19 stably transfected with human CCR10, and with human CCL27 as agonist.
The calcium flux release was assessed using CCR10 transfected 300-19 murine pre-B cells. These cells were labeled as a batch with Calcium4 Reagent (Molecular Devices, Sunnyvale, Calif.) in HBSS buffer for 60 min.
After dispensing 8×10^4 cells in each well of a 384-well black plate, a concentrated solution of the β-hairpin peptidomimetics of this invention in HBSS+0.1% BSA+0.1% DMSO (final concentration) was added to the cells. The entire plate was centrifuged and placed in a Flexstation II (Molecular Devices) automated plate reader. After reading a 20 s baseline, the Flexstation dispensed CCL27 (RnD systems) at a final concentration of 30 nM in HBSS+0.1% BSA onto the cells and calcium flux was measured for an additional 70 s.
Alternatively a FIipR384 (Molecular Devices) was used for read out of the 384-well plates. In this case about 8×10^4 cells were placed in each well, centrifuged, placed in the FlipR and after 5 s of baseline reading, the β-hairpin peptidomimetics in HBSS+0.1% BSA+0.1% DMSO (final concentration) were added. After an incubation time of 5 min, the CCL27 solution was added to the mixture and the calcium flux was measured for 200 s.
The maximum signal was determined from control wells without inhibitor. Percentage of inhibition was calculated from a range of compound concentrations, which were subsequently used to calculate IC50 values (Softmax Pro, Molecular Devices). All steps were carried out at room temperature.

[2] = target: T1, human CCR10; assay: Chemotaxis assay (CCR10-transfected 300-19 cells, CCL27 gradient); assay type: cell-based; conditions: CCR10-transfected 300-19 murine pre-B cells; 30 nM CCL27 gradient
Procedure: as §1, §2
The chemotactic response of CCR10-transfected 300-19 murine pre-B cells to a gradient of CCL27 (CTACK) was measured using disposable Transwell® assay plates from Costar (5 μm pore size) according to the protocol of the manufacturer. Briefly, cells were grown under sterile conditions at 37° C. with 5% CO2 in flasks containing RPMI+5% FCS, glutamine, penicillin/streptomycin (all media components were from Life Technologies) and the appropriate selection antibiotics (Puromycin, G418 or Tetracycline). For the assay, cells were pelleted by centrifugation, washed once in Dulbecco's phosphate buffered saline (DPBS), and resuspended to give 1×10^6 cells/ml in RPMI+0.5% bovine serum albumin (BSA). 100 μl of cell suspension was applied to the top of the assay filter. The β-hairpin peptidomimetics, diluted in the same assay medium, were added to both top and bottom chambers. The cells were allowed to migrate for 4-6 hours at 37° C. into the bottom chamber of the assay plate containing 30 nM of CCL27 (RnD systems). Migrated cells were counted using a FACS cytometer (Cytomics FC500, Beckman Coulter). Data normalization was performed using the number of any cells that had migrated in the absence of the β-hairpin peptidomimetic and the number of cells that have randomly migrated in absence of CCL27 [these values were taken as 100% (no inhibitory activity) and 0%, respectively]. From a range of compound concentrations IC50 were determined using Prism5 (GraphPad software).

SMILES | IC50 [1] [nM] | IC50 [2] [nM]
NCC[C@H](N)C(=O)NCC[C@@H]1NC(=O)[C@H](Cc2c[nH]c3ccccc23)NC(=O)C2(CCCC2)NC(=O)[C@H](Cc2c[nH]c3ccccc23)NC(=O)[C@@H]2C[C@@H]3CCCC[C@@H]3N2C(=O)[C@H]2CCCN2C1=O [Ex. 71, cyclo(-Trp-Cyp-Trp-Dab(Dab)-^DPro-Oic-)] (cyclo([Ac5c]W[Dab](Dab)[dP][Oic]W)) | 567 ± 155 | 50.2
COCCOCC(=O)NCC[C@@H]1NC(=O)[C@H](Cc2c[nH]c3ccccc23)NC(=O)C2(CCCC2)NC(=O)[C@H](Cc2c[nH]c3ccccc23)NC(=O)[C@@H]2C[C@@H]3CCCC[C@@H]3N2C(=O)[C@H]2CCCN2C1=O [Ex. 72, cyclo(-Trp-Cyp-Trp-Dab(MEMCO)-^DPro-Oic-)] (cyclo([Ac5c]W[Dab](MeOCH2CH2OCH2CO)[dP][Oic]W)) | 62.8 ± 41.6 | 11.5
COCCNC(=O)NCC[C@@H]1NC(=O)[C@H](Cc2c[nH]c3ccccc23)NC(=O)C2(CCCC2)NC(=O)[C@H](Cc2c[nH]c3ccccc23)NC(=O)[C@@H]2C[C@@H]3CCCC[C@@H]3N2C(=O)[C@H]2CCCN2C1=O [Ex. 73, cyclo(-Trp-Cyp-Trp-Dab(MeO(CH2)2NHCO)-^DPro-Oic-)] (cyclo([Ac5c]W[Dab]([CO-NHCH2CH2OMe])[dP][Oic]W)) | 24.2 ± 24.5 | 5.3
COCCN(C)C(=O)NCC[C@@H]1NC(=O)[C@H](Cc2c[nH]c3ccccc23)NC(=O)C2(CCCC2)NC(=O)[C@H](Cc2c[nH]c3ccccc23)NC(=O)[C@@H]2C[C@@H]3CCCC[C@@H]3N2C(=O)[C@H]2CCCN2C1=O [Ex. 97, cyclo(-Trp-Cyp-Trp-Dab((MeO(CH2)2)(Me)NCO)-^DPro-Oic-)] (cyclo([Ac5c]W[Dab]([CO-N(Me)CH2CH2OMe])[dP][Oic]W)) | 8.1 ± 9.1 | 5.6
CS(=O)(=O)NCC[C@@H]1NC(=O)[C@H](Cc2c[nH]c3ccccc23)NC(=O)C2(CCCC2)NC(=O)[C@H](Cc2c[nH]c3ccccc23)NC(=O)[C@@H]2C[C@@H]3CCCC[C@@H]3N2C(=O)[C@H]2CCCN2C1=O [Ex. 100, cyclo(-Trp-Cyp-Trp-Dab(MeSO2)-^DPro-Oic-)] (cyclo([Ac5c]W[Dab](Ms)[dP][Oic]W)) | 0.2 ± 0.1 | 3.4
O=C1NC2(CCCC2)C(=O)N[C@@H](Cc2c[nH]c3ccccc23)C(=O)N[C@@H](CCNCc2c[nH]cn2)C(=O)N2CCC[C@@H]2C(=O)N2[C@@H](C[C@@H]3CCCC[C@@H]32)C(=O)N[C@H]1Cc1c[nH]c2ccccc12 [Ex. 106, cyclo(-Trp-Cyp-Trp-Dab(A55)-^DPro-Oic-)] (cyclo([Ac5c]W[X7][dP][Oic]W)) | 12.2 ± 3.8 | 4.8
Cn1cncc1CCC(=O)NCC[C@@H]1NC(=O)[C@H](Cc2c[nH]c3ccccc23)NC(=O)C2(CCCC2)NC(=O)[C@H](Cc2ccc(C(F)(F)F)cc2)NC(=O)[C@@H]2C[C@@H]3CCCC[C@@H]3N2C(=O)[C@H]2CCCN2C1=O [Ex. 108, cyclo(-Phe(4CF3)-Cyp-Trp-Dab(A56)-^DPro-Oic-)] (cyclo([Ac5c]W[Dab](X8)[dP][Oic][Phe(4-CF3)])) | 34.5 ± 17.3 | 2.5
NCC[C@@H]1NC(=O)[C@H](Cc2c[nH]c3ccccc23)NC(=O)C2(CCCC2)NC(=O)[C@H](Cc2c[nH]c3ccccc23)NC(=O)[C@@H]2CSCN2C(=O)[C@H]2CCCN2C1=O [compound 6, cyclo(-Trp-Cyp-Trp-Dab-^DPro-Thz-)] (cyclo([Ac5c]W[Dab][dP][Thz]W)) | 134 ± 73.3 | 19.6
NCC[C@@H]1NC(=O)[C@H](Cc2c[nH]c3ccccc23)NC(=O)C2(CCCC2)NC(=O)[C@H](Cc2c[nH]c3ccccc23)NC(=O)[C@@H]2C[C@@H](Cc3ccc(Br)cc3)CN2C(=O)[C@H]2CCCN2C1=O [compound 39, cyclo(-Trp-Cyp-Trp-Dab-^DPro-Pro((4R)4BrBn)-)] (cyclo([Ac5c]W[Dab][dP][X1]W)) | 15.8 ± 10.3 | 9
N#Cc1cccc(C[C@@H]2C[C@H]3C(=O)N[C@@H](Cc4c[nH]c5ccccc45)C(=O)NC4(CCCC4)C(=O)N[C@@H](Cc4c[nH]c5ccccc45)C(=O)N[C@@H](CCN)C(=O)N4CCC[C@@H]4C(=O)N3C2)c1 [compound 40, cyclo(-Trp-Cyp-Trp-Dab-^DPro-Pro((4R)3CNBn)-)] (cyclo([Ac5c]W[Dab][dP][X4]W)) | 27.9 ± 10.5 | 3.8
NCC[C@@H]1NC(=O)[C@H](Cc2c[nH]c3ccccc23)NC(=O)C2(CCCC2)NC(=O)[C@H](Cc2c[nH]c3ccccc23)NC(=O)[C@@H]2C[C@@H](C3CCCCC3)CN2C(=O)[C@H]2CCCN2C1=O [compound 41, cyclo(-Trp-Cyp-Trp-Dab-^DPro-Pro((4S)cHex)-)] (cyclo([Ac5c]W[Dab][dP][Pro(trans-4-cHex)]W)) | 54.3 ± 22 | 140
CC1(C)CC[C@H]2C(=O)N[C@@H](Cc3c[nH]c4ccccc34)C(=O)NC3(CCCC3)C(=O)N[C@@H](Cc3c[nH]c4ccccc34)C(=O)N[C@@H](CCN)C(=O)N3CCC[C@@H]3C(=O)N21 [compound 42, cyclo(-Trp-Cyp-Trp-Dab-^DPro-Pro(5,5Me2)-)] (cyclo(W[Ac5c]W[Dab][dP][X13])) | 82.5 ± 30.4 | 14.2
N#Cc1ccc(C[C@@H]2NC(=O)[C@@H]3C[C@@H](OCc4ccccc4)CN3C(=O)[C@H]3CCCN3C(=O)[C@H](CO)NC(=O)[C@H](Cc3ccc(F)cc3)NC(=O)C3(CCCC3)NC2=O)cc1 [compound 44, cyclo(-Phe(4CN)-Cyp-Phe(4F)-Ser-^DPro-Hyp(Bn)-)] (cyclo([Ac5c][Phe(4-F)]S[dP][Hyp](Bn)[Phe(4-CN)])) | 1.9 ± 2.1 | 13.5
NCC[C@@H]1NC(=O)[C@H](Cc2c[nH]c3ccccc23)NC(=O)C2(CCCC2)NC(=O)[C@H](Cc2c[nH]c3ccccc23)NC(=O)[C@@H]2C[C@@H](OCc3ccccc3)CN2C(=O)[C@H]2CCCN2C1=O [compound 45, cyclo(-Trp-Cyp-Trp-Dab-^DPro-Hyp(Bn)-)] (cyclo([Ac5c]W[Dab][dP][Hyp](Bn)W)) | 65.8 ± 19.6 | 14
O=C1NC2(CCCC2)C(=O)N[C@@H](Cc2c[nH]c3ccccc23)C(=O)N[C@@H](CO)C(=O)N2CCC[C@@H]2C(=O)N2C[C@H](OCc3ccccc3)C[C@H]2C(=O)N[C@H]1Cc1c[nH]c2ccccc12 [compound 46, cyclo(-Trp-Cyp-Trp-Ser-^DPro-Hyp(Bn)-)] (cyclo([Ac5c]WS[dP][Hyp](Bn)W)) | 12.6 ± 9 | 35.4
NCC[C@@H]1NC(=O)[C@H](Cc2c[nH]c3ccccc23)NC(=O)C2(CCCC2)NC(=O)[C@H](Cc2c[nH]c3cc(Cl)ccc23)NC(=O)[C@@H]2C[C@@H](OCc3ccccc3)CN2C(=O)[C@H]2CCCN2C1=O [compound 48, cyclo(-Trp(6Cl)-Cyp-Trp-Dab-^DPro-Hyp(Bn)-)] (cyclo([Ac5c]W[Dab][dP][Hyp](Bn)[Trp(6-Cl)])) | 8.5 ± 3.5 | 8.6
N#Cc1ccc(C[C@@H]2NC(=O)[C@@H]3C[C@@H](OCc4ccccc4)CN3C(=O)[C@H]3CCCN3C(=O)[C@H](CCN)NC(=O)[C@H](Cc3c[nH]c4ccccc34)NC(=O)C3(CCCC3)NC2=O)cc1 [compound 49, cyclo(-Phe(4CN)-Cyp-Trp-Dab-^DPro-Hyp(Bn)-)] (cyclo([Ac5c]W[Dab][dP][Hyp](Bn)[Phe(4-CN)])) | 181 ± 110 | 5.3
N#Cc1ccc(C[C@@H]2NC(=O)[C@@H]3C[C@@H](OCc4ccccc4)CN3C(=O)[C@H]3CCCCN3C(=O)[C@H](CO)NC(=O)[C@H](Cc3c[nH]c4ccccc34)NC(=O)C3(CCCC3)NC2=O)cc1 [compound 50, cyclo(-Phe(4CN)-Cyp-Trp-Ser-^DPip-Hyp(Bn)-)] (cyclo([Ac5c]WS[dPip][Hyp](Bn)[Phe(4-CN)])) | 0.5 ± 0.2 | 1.8

Reference: patent US8754038B2, “Template-fixed peptidomimetics with CCR10 antagonistic activity” (priority 2009, dated 2014)
